# Measurements taken from ChEMBL document CHEMBL1811878, “Heteroatom-substituted analogues of orphan nuclear receptor small heterodimer partner ligand and apoptosis inducer (E)-4-[3-(1-Adamantyl)-4-hydroxyphenyl]-3-chlorocinnamic acid” (J Med Chem, 2011).
# pIC50: −log10 of the molar value. Activity calls are given as the source filed them. The calls are words filed in the database; no cut-off is given here.
# How the values were obtained:
# [1] = tested on: KG-1; assay: Growth inhibition in human KG1 cells expressing p53 gene at 1 uM after 48 hrs by MTT assay; assay type: functional; conditions: KG-1, 48 h, read-out: GI
# [2] = tested on: KG-1; assay: Induction of apoptosis in human KG1 cells assessed as DNA fragmentation at 5 uM after 48 hrs by acridine orange staining method; assay type: functional
# [3] = tested on: HT-29; assay: Induction of apoptosis in human HT-29 cells assessed as decrease in ATP level at 10 uM after 72 hrs by luminescence assay; assay type: functional
# [4] = tested on: Mus musculus; assay: Toxicity in ICR-SCIDS mouse harboring xenograft assessed as occurrence of diarrhea at 20 mg/kg, iv qd administered alternate days for a total of 15 doses measured on day 9; assay type: organism-based; design: dose 20 mg/kg, route intravenous; conditions: in vivo
# [5] = tested on: Mus musculus; assay: Toxicity in ICR-SCIDS mouse harboring xenograft assessed as occurrence of scruffy coat at 20 mg/kg, iv qd administered alternate days for a total of 15 doses measured on day 9; assay type: organism-based; design: dose 20 mg/kg, route intravenous; conditions: in vivo
# [6] = tested on: Mus musculus; assay: Toxicity in ICR-SCIDS mouse harboring xenograft assessed as body weight loss at 20 mg/kg, iv qd administered alternate days for a total of 15 doses measured on day 9; assay type: organism-based; design: dose 20 mg/kg, route intravenous; conditions: in vivo
# [7] = tested on: PC-3; assay: Induction of apoptosis in human PC3 cells assessed as decrease in ATP level at 5 uM after 72 hrs by luminescence assay; assay type: functional; design: scale not given: the % may be the effect or the level left
# [8] = tested on: Mus musculus; assay: Toxicity in ICR-SCIDS mouse harboring xenograft assessed as decreased physical activity at 20 mg/kg, iv qd administered alternate days for a total of 15 doses measured on day 9; assay type: organism-based; design: dose 20 mg/kg, route intravenous; conditions: in vivo
# [9] = Induction of apoptosis in mouse MMTV-Wnt-1 cells assessed as cell viability after 72 hrs by DAPI staining based cell counting; assay type: functional
# [10] = tested on: PC-3; assay: Induction of apoptosis in human PC3 cells assessed as decrease in ATP level at 10 uM after 72 hrs by luminescence assay; assay type: functional, cell-based
# [11] = tested on: HT-29; assay: Induction of apoptosis in human HT-29 cells assessed as decrease in ATP level at 5 uM after 72 hrs by luminescence assay; assay type: functional; design: scale not given: the % may be the effect or the level left
# [12] = tested on: A549; assay: Induction of apoptosis in human A549 cells assessed as decrease in ATP level at 5 uM after 72 hrs by luminescence assay; assay type: functional; design: scale not given: the % may be the effect or the level left
# [13] = tested on: Mus musculus; assay: Toxicity in ICR-SCIDS mouse assessed as decrease in body weight at 20 mg/kg, iv qd administered at a 25% increment in dose each day for 7 days measured on day 8 relative to control; assay type: organism-based; design: dose 20 mg/kg, route intravenous; scale not given: the % may be the effect or the level left; conditions: in vivo, 168 h
# [14] = tested on: PC-3; assay: Induction of apoptosis in human PC3 cells assessed as decrease in ATP level after 72 hrs by luminescence assay; assay type: functional, cell-based
# [15] = tested on: Mus musculus; assay: Toxicity in ICR-SCIDS mouse assessed as increase in body weight at 20 mg/kg, iv qd administered at a 25% increment in dose each day for 7 days measured on day 1; assay type: organism-based; design: dose 20 mg/kg, route intravenous; conditions: in vivo, 168 h
# [16] = tested on: KG-1; assay: Induction of apoptosis in human KG1 cells expressing p53 gene assessed as DNA fragmentation at 1 uM after 48 hrs by acridine orange staining method; assay type: functional
# [17] = tested on: A549; assay: Induction of apoptosis in human A549 cells assessed as decrease in ATP level at 10 uM after 72 hrs by luminescence assay; assay type: functional, cell-based
# [18] = tested on: HT-29; assay: Induction of apoptosis in human HT-29 cells assessed as decrease in ATP level after 72 hrs by luminescence assay; assay type: functional, cell-based
# [19] = tested on: Mus musculus; assay: Toxicity in ICR-SCIDS mouse harboring xenograft assessed as exhibiting symptoms of dehydration at 20 mg/kg, iv qd administered alternate days for a total of 15 doses measured on day 9; assay type: organism-based; design: dose 20 mg/kg, route intravenous; conditions: in vivo
# [20] = tested on: KG-1; assay: Growth inhibition in human KG1 cells expressing p53 gene at 5 uM after 48 hrs by MTT assay; assay type: functional; conditions: KG-1, 48 h, read-out: GI
# [21] = Aqueous solubility of the compound in PBS at pH 7.2 by UV spectrophotometric analysis; assay type: physicochemical
# [22] = tested on: A549; assay: Induction of apoptosis in human A549 cells assessed as decrease in ATP level after 72 hrs by luminescence assay; assay type: functional, cell-based
# [23] = tested on: Mus musculus; assay: Toxicity in ICR-SCIDS mouse assessed as decrease in body weight at 20 mg/kg, iv qd administered at a 25% increment in dose each day for 7 days measured on day 7 relative to body weight on day 1; assay type: organism-based; design: dose 20 mg/kg, route intravenous; scale not given: the % may be the effect or the level left; conditions: in vivo, 168 h
# [24] = tested on: Mus musculus; assay: Toxicity in ICR-SCIDS mouse assessed as increase in body weight at 20 mg/kg, iv qd administered at a 25% increment in dose each day for 7 days measured on day 4; assay type: organism-based; design: dose 20 mg/kg, route intravenous; conditions: in vivo, 168 h
# [25] = tested on: MDA-MB-231; assay: Induction of apoptosis in retinoid-resistant human MDA-MB-231 cells expressing p53 and Erbeta gene assessed as DNA fragmentation at 0.1 to 1 uM after 48 hrs by acridine orange staining method; assay type: functional, cell-based
# [26] = tested on: MDA-MB-231; assay: Growth inhibition of retinoid-resistant human MDA-MB-231 cells expressing p53 and ERbeta gene at 1 uM after 48 hrs by MTT assay; assay type: functional; conditions: MDA-MB-231, 48 h, read-out: GI
# [27] = Aqueous solubility of the compound in water at pH 5 by UV spectrophotometric analysis; assay type: physicochemical
# [28] = tested on: HT-29; assay: Induction of apoptosis in human HT-29 cells assessed as decrease in ATP level at 10 uM after 72 hrs by luminescence assay relative to control; assay type: functional; design: scale not given: the % may be the effect or the level left
# [29] = tested on: MDA-MB-231; assay: Induction of apoptosis in retinoid-resistant human MDA-MB-231 cells expressing p53 and ERbeta gene assessed as DNA fragmentation at 1 uM after 48 hrs by acridine orange staining method; assay type: functional
# [30] = Induction of apoptosis in retinoid-resistant p53 null human HL60R cells assessed as DNA fragmentation at 1 uM after 24 hrs by acridine orange staining method; assay type: functional
# [31] = tested on: MDA-MB-231; assay: Growth inhibition of retinoid-resistant human MDA-MB-231 cells expressing p53 and ERbeta gene at 1 uM after 24 hrs by MTT assay; assay type: functional; conditions: MDA-MB-231, 24 h, read-out: GI
# [32] = tested on: MDA-MB-231; assay: Growth inhibition of retinoid-resistant human MDA-MB-231 cells expressing p53 and Erbeta gene at 0.1 to 1 uM after 48 hrs by MTT assay; assay type: functional, cell-based
# [33] = Induction of apoptosis in retinoid-resistant p53 null human HL60R cells assessed as DNA fragmentation at 0.1 uM after 24 hrs by acridine orange staining method; assay type: functional
# [34] = tested on: MDA-MB-231; assay: Induction of apoptosis in retinoid-resistant human MDA-MB-231 cells expressing p53 and ERbeta gene assessed as DNA fragmentation at 1 uM after 24 hrs by acridine orange staining method; assay type: functional
SMILES,inhibition of growth at 1 µM [1],Activity [2],Activity [3],Activity [7],pIC50 [9],Activity [10],Activity [11],Activity [12],Activity [13],Activity [14],Activity [15],Activity [16],Activity [17],Activity [18],inhibition of growth at 5 µM [20],Activity [22],Activity [23],Activity [24],other results
O=C(O)/C=C/c1cnc(-c2ccc(O)c(C34CC5CC(CC(C5)C3)C4)c2)nc1,100%,50%,inactive,35%,7.22,Active,15%,35%,100%,Dose-dependent effect,5.7%,40%,Active,Dose-dependent effect,100%,Dose-dependent effect,100.9%,5.7%,"Activity [4]: Non-toxic; Activity [5]: Non-toxic; Activity [6]: Non-toxic; Activity [8]: Non-toxic; Activity [19]: Non-toxic; solubility ([21]; PBS, read-out: solubility): 0.44 µM"
O=C(O)/C=C/c1ccc(-c2ccc(O)c(C34CC5CC(CC(C5)C3)C4)c2)c(Cl)c1,44%,55%,>=40%,30%,6.55,Active,30%,30%,62.7%,Dose-dependent effect,9.3%,30%,Active,Dose-dependent effect,67%,Dose-dependent effect,90.4%,9.3%,Activity [25]: inactive; inhibition of growth at 1 µM [26]: 43%; solubility [27]: 4.5 µM; Activity [28]: <60%; Activity [29]: 7%; Activity [30]: 94%; inhibition of growth at 1 µM [31]: 8%; growth inhibition (GI) [32]: inactive; Activity [33]: 51%; Activity [34]: 3%; solubility ([21]; buffer): soluble
